Test results: patent publication US6737383B1, “Herbicidal oxadiazolidines” (priority 1999, dated 2004)

How the values were obtained:
surinam grass = experiment: Test B pre/postemergence surinam grass; type: in vivo, Brachiaria decumbens
Summary of the method: (§1)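 Herbicidal effect was estimated by eye on a ten-point control scale after plants spent twelve to sixteen days in a greenhouse following soil or foliar treatment. Foliar sprays targeted plants at one to four leaves; all doses were formulated in a non-phytotoxic solvent with surfactant.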

cocklebur = experiment: Test B pre/postemergence cocklebur; type: in vivo, Xanthium strumarium
Summary of the method: as §1

corn = experiment: Test B pre/postemergence corn; type: in vivo, Zea mays
Summary of the method: as §1

crabgrass = experiment: Test B pre/postemergence crabgrass; type: in vivo, Digitaria sanguinalis
Summary of the method: as §1

giant foxtail = experiment: Test B pre/postemergence giant foxtail; type: in vivo, Setaria faberii
Summary of the method: as §1

morningglory = experiment: Test B pre/postemergence morningglory; type: in vivo, Ipomoea hederacea
Summary of the method: as §1

pigweed = experiment: Test B pre/postemergence pigweed; type: in vivo, Amaranthus retroflexus
Summary of the method: as §1

rape = experiment: Test B pre/postemergence rape; type: in vivo, Brassica napus
Summary of the method: as §1

sugar beet = experiment: Test B pre/postemergence sugar beet; type: in vivo, Beta vulgaris
Summary of the method: as §1

wheat = experiment: Test B pre/postemergence wheat; type: in vivo, Triticum aestivum
Summary of the method: as §1

wild oat = experiment: Test B pre/postemergence wild oat; type: in vivo, Avena fatua
Summary of the method: as §1

purple nutsedge = experiment: Test B pre/postemergence purple nutsedge; type: in vivo, Cyperus rotundus
Summary of the method: as §1

rice = experiment: Test B flood test rice; type: in vivo, Oryza sativa
Summary of the method: (§2)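 Flood test on plants grown to the 2-leaf stage; treated plants kept in greenhouse twelve to sixteen days, then visually rated against controls on a 0 (no effect) to 10 (complete control) scale.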

smallflower flatsedge = experiment: Test B flood test smallflower flatsedge; type: in vivo, Cyperus difformis
Summary of the method: as §2

duck salad = experiment: Test B flood test duck salad; type: in vivo, Heteranthera limosa
Summary of the method: as §2

bamyardgrass = experiment: Test B flood test barnyardgrass; type: in vivo, Echinochloa crus-galli
Summary of the method: as §2

[1] = Preemergence, Rate 62 g/ha, scale of 0 to 10 where 0 is no effect and 10 is complete control
[2] = Preemergence, Rate 250 g/ha, scale of 0 to 10 where 0 is no effect and 10 is complete control
[3] = Preemergence, Rate 500 g/ha, scale of 0 to 10 where 0 is no effect and 10 is complete control
[4] = Rate 62 g/ha, Postemergence, scale 0 to 10 (0 no effect, 10 complete control)
[5] = Rate 125 g/ha, Postemergence, scale of 0 to 10 where 0 is no effect and 10 is complete control
[6] = Rate 250 g/ha, Postemergence, scale of 0 to 10 where 0 is no effect and 10 is complete control
[7] = Rate 500 g/ha, Postemergence, scale 0 to 10, 0 no effect, 10 complete control
[8] = Rate 62 g/ha, headed Pre-emergence (flood test species), scale 0 to 10 (0 no effect, 10 complete control)
[9] = Rate 125 g/ha, Pre-emergence, flood test species, scale 0 to 10 where 0 is no effect and 10 is complete control
[10] = Rate 250 g/ha, Pre-emergence, flood-test species, scale 0 to 10, 0 is no effect, 10 is complete control
[11] = Rate 500 g/ha, Pre-emergence, flood test species, scale 0 to 10 (0 no effect, 10 complete control)

CC(C)N(C(=O)n1oc(=O)n(Cc2nnsc2Cl)c1=O)c1ccccc1 [Compound 321]
B. signalgrass plant response rating (surinam grass; [1]): 0
B. signalgrass plant response rating (0 to 10 scale, 0 is no effect, 10 is complete control) (surinam grass; Preemergence, Rate 125 g/ha): 0
B. signalgrass plant response rating (surinam grass; [2]): 3
B. signalgrass plant response rating (surinam grass; [3]): 5
B. signalgrass plant response rating (surinam grass; [4]): 0
B. signalgrass plant response rating (surinam grass; [5]): 0
Plant response rating, B. signalgrass (surinam grass; [6]): 0
B. signalgrass plant response rating (surinam grass; [7]): 0
Cocklebur plant response rating (cocklebur; [1]): 0
Cocklebur plant response rating (0 to 10 scale) (cocklebur; Preemergence, Rate 125 g/ha): 0
Cocklebur plant response rating (cocklebur; [2]): 0
Cocklebur plant response rating (cocklebur; [3]): 0
Cocklebur plant response rating (cocklebur; [4]): 0
Cocklebur plant response rating (cocklebur; [5]): 0
Plant response rating, Cocklebur (cocklebur; [6]): 0
Cocklebur plant response rating (cocklebur; [7]): 0
Corn plant response rating (corn; [1]): 0
Corn plant response rating (0 to 10 scale) (corn; Preemergence, Rate 125 g/ha): 0
Corn plant response rating (corn; [2]): 0
Corn plant response rating (corn; [3]): 0
Corn plant response rating (corn; [4]): 0
Corn plant response rating (corn; [5]): 0
Plant response rating, Corn (corn; [6]): 0
Corn plant response rating (corn; [7]): 0
Crabgrass plant response rating (crabgrass; [1]): 0
Crabgrass plant response rating (0 to 10 scale) (crabgrass; Preemergence, Rate 125 g/ha): 2
Crabgrass plant response rating (crabgrass; [2]): 3
Crabgrass plant response rating (crabgrass; [3]): 4
Crabgrass plant response rating (crabgrass; [4]): 0
Crabgrass plant response rating (crabgrass; [5]): 0
Plant response rating, Crabgrass (crabgrass; [6]): 2
Giant foxtail plant response rating (giant foxtail; [1]): 4
Giant foxtail plant response rating (0 to 10 scale) (giant foxtail; Preemergence, Rate 125 g/ha): 8
Giant foxtail plant response rating (giant foxtail; [2]): 9
Giant foxtail plant response rating (giant foxtail; [3]): 10
Giant foxtail plant response rating (giant foxtail; [4]): 0
Giant foxtail plant response rating (giant foxtail; [5]): 0
Plant response rating, Giant foxtail (giant foxtail; [6]): 1
Morningglory plant response rating (morningglory; [1]): 0
Morningglory plant response rating (0 to 10 scale) (morningglory; Preemergence, Rate 125 g/ha): 0
Morningglory plant response rating (morningglory; [2]): 0
Morningglory plant response rating (morningglory; [3]): 0
Morningglory plant response rating (morningglory; [4]): 2
Morningglory plant response rating (morningglory; [5]): 7
Plant response rating, Morningglory (morningglory; [6]): 8
Redroot pigweed plant response rating (pigweed; [1]): 0
Redroot pigweed plant response rating (0 to 10 scale) (pigweed; Preemergence, Rate 125 g/ha): 0
Redroot pigweed plant response rating (pigweed; [2]): 0
Redroot pigweed plant response rating (pigweed; [3]): 0
Redroot pigweed plant response rating (pigweed; [4]): 2
Redroot pigweed plant response rating (pigweed; [5]): 3
Plant response rating, Redroot pigweed (pigweed; [6]): 4
Rape plant response rating (rape; [1]): 0
Rape plant response rating (0 to 10 scale) (rape; Preemergence, Rate 125 g/ha): 0
Rape plant response rating (rape; [2]): 0
Rape plant response rating (rape; [3]): 0
Rape plant response rating (rape; [4]): 0
Rape plant response rating (rape; [5]): 0
Plant response rating, Rape (rape; [6]): 0
Sugarbeets plant response rating (sugar beet; [1]): 0
Sugarbeets plant response rating (0 to 10 scale) (sugar beet; Preemergence, Rate 125 g/ha): 0
Sugarbeets plant response rating (sugar beet; [2]): 0
Sugarbeets plant response rating (sugar beet; [3]): 0
Sugarbeets plant response rating (sugar beet; [4]): 0
Sugarbeets plant response rating (sugar beet; [5]): 0
Plant response rating, Sugarbeets (sugar beet; [6]): 5
Wheat plant response rating (wheat; [1]): 0
Wheat plant response rating (0 to 10 scale) (wheat; Preemergence, Rate 125 g/ha): 0
Wheat plant response rating (wheat; [2]): 0
Wheat plant response rating (wheat; [3]): 0
Wheat plant response rating (wheat; [4]): 0
Wheat plant response rating (wheat; [5]): 0
Plant response rating, Wheat (wheat; [6]): 0
Wild oats plant response rating (wild oat; [1]): 0
Wild oats plant response rating (0 to 10 scale) (wild oat; Preemergence, Rate 125 g/ha): 0
Wild oats plant response rating (wild oat; [2]): 2
Wild oats plant response rating (wild oat; [3]): 5
Wild oats plant response rating (wild oat; [4]): 0
Wild oats plant response rating (wild oat; [5]): 0
Plant response rating, Wild oats (wild oat; [6]): 0
Nutsedge plant response rating (purple nutsedge; [1]): 0
Nutsedge plant response rating (0 to 10 scale) (purple nutsedge; Preemergence, Rate 125 g/ha): 0
Nutsedge plant response rating (purple nutsedge; [3]): 0
Nutsedge plant response rating (purple nutsedge; [4]): 0
Nutsedge plant response rating (purple nutsedge; [5]): 0
Plant response rating, Nutsedge (purple nutsedge; [6]): 0
Rice plant response rating (rice; [8]): 0
Rice plant response rating (rice; [9]): 0
Rice plant response rating (rice; [10]): 0
Rice plant response rating (rice; [11]): 0
S. Flatsedge plant response rating (smallflower flatsedge; [8]): 0
S. Flatsedge plant response rating (smallflower flatsedge; [9]): 0
S. Flatsedge plant response rating (smallflower flatsedge; [10]): 0
S. Flatsedge plant response rating (smallflower flatsedge; [11]): 0
Ducksalad plant response rating (duck salad; [8]): 0
Ducksalad plant response rating (duck salad; [9]): 0
Ducksalad plant response rating (duck salad; [10]): 0
Ducksalad plant response rating (duck salad; [11]): 0
Barnyardgrass plant response rating (bamyardgrass; [8]): 0
Barnyardgrass plant response rating (bamyardgrass; [9]): 0
Barnyardgrass plant response rating (bamyardgrass; [10]): 0
Barnyardgrass plant response rating (bamyardgrass; [11]): 0
